From paper PMC10065799, “High-throughput profiling of sequence recognition by tyrosine kinases and SH2 domains using bacterial peptide display” (eLife, 2023)
Each block holds one sequence with its values, some of them ahead of it.

Columns and labels:
Assay in all cases: pTyr-Var library bacterial peptide display kinase screen (enrichment scores)
Fer kinase domain = type: biochemical, mouse; conditions: sheet "Fer"
c-Src kinase domain = c-Src kinase domain (Homo sapiens, UniProt P12931); type: biochemical; conditions: sheet "Src";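 further: log2 fold change in enrichment of variant over reference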
c-Abl kinase domain = target: T1, c-Abl kinase domain (Mus musculus, UniProt P00520); type: biochemical;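 further: log2 fold change in enrichment of variant over reference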
T1 sequence (P00520 242-493 limits assumed): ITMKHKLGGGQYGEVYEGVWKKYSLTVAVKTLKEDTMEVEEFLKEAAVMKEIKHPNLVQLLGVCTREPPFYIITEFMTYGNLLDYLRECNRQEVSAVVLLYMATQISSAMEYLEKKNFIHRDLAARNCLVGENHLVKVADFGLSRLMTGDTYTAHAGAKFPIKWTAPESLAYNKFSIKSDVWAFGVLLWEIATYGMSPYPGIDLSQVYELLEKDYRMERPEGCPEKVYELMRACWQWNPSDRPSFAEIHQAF

EPHB2 kinase domain = type: biochemical, human; conditions: sheet EPHB2
EPHB1 kinase domain = type: biochemical, human; conditions: for Screen: sheet EPHB1, effect of the variant peptide relative to its reference peptide in the pTyr-Var library screen (enrichment scores); for Screen (variant relative to reference peptide, measured in the pTyr-Var library screen): sheet "EPHB1", variant seq vs reference seq, bacterial peptide display enrichment
[1] = value of the variant peptide against its reference peptide in the pTyr-Var library screen with Fer
[2] = effect of the variant peptide relative to its reference peptide in the pTyr-Var library screen
[3] = fig5-data2, sheet "Abl", Screen for the variant/reference peptide pair, pTyr-Var library
[4] = effect of variant peptide relative to its reference peptide in the pTyr-Var library screen (enrichment scores)
[5] = variant peptide versus its reference peptide in the pTyr-Var library screen
[6] = sheet "Abl", effect of variant peptide relative to its reference peptide in pTyr-Var library screen (enrichment)
[7] = variant peptide relative to its reference peptide, pTyr-Var library screen enrichment

Sequence: FDGGCYEQLFV [MC4R_Y41_S36Y_YF]
Screen (Fer kinase domain; [1]): 0.1035 | Screen (c-Src kinase domain; [2]): 0.4972

Sequence: EPFEVYRIVPE [IRF8_Y110_K108E_YF]
Screen (c-Src kinase domain; [2]): 2.655

Sequence: INQGPYENHSV [ATP6V1B1_Y462_R465H]
Screen (Fer kinase domain; [1]): 4.636

Sequence: IGEVVYQWAVM [GRIN2A_Y502_R504W]
Screen (Fer kinase domain; [1]): 2.434 | Screen (c-Src kinase domain; [2]): -0.09777

Sequence: IIEDPYFGNDF [ACP1_Y132_S137F_YF]
Screen (c-Src kinase domain; [2]): 0.7844

Sequence: DGQVNYEELVQ [CALM1_Y139_F142L]
Screen (EPHB1 kinase domain): -0.5322

Sequence: IVLRSYPASDH [NID2_Y449_G453D]
Screen (c-Abl kinase domain; [3]): 0.09357

Sequence: GRDVIYKGFED [NFU1_Y194_G190R]
Screen (c-Src kinase domain; [5]): -0.4839

Sequence: FFFDLYGGEKF [PTPN11_Y66_D61Y_YF]
Screen (c-Src kinase domain; [5]): -1.282

Sequence: KFDLMYAKLAF [TUBA1A_Y399_R402L]
Screen (c-Src kinase domain; [5]): 2.907

Sequence: DLEKTYNTFRS [B4GALNT2_Y538_A533D_YF]
Screen (c-Src kinase domain; [2]): -0.01989

Sequence: NNFGNYNNQSS [HNRNPA1_Y318_D314N]
Screen (c-Abl kinase domain; [3]): 1.57

Sequence: PLDAEYFTLQI [TP53_Y327_G325A]
Screen (c-Src kinase domain; [5]): 0.1358

Sequence: TGNPAYRSFSN [IL4R_Y497_A492T]
Screen (c-Abl kinase domain; [3]): 1.02

Sequence: LWQTIYNLEAE [TNNT2_Y251_S249T]
Screen (c-Src kinase domain; [5]): 0.4505

Sequence: FQKNSYSEELR [LMNA_Y211_I210S]
Screen (c-Src kinase domain; [2]): -2.048

Sequence: LPVHFYSHVEH [PYGM_Y204_G205S]
Screen (Fer kinase domain; [7]): -0.5676

Sequence: HSKGIYFVQLE [MGAT4B_Y262_Q257H_YF]
Screen (c-Abl kinase domain; [3]): -0.4742 | Screen (EPHB2 kinase domain; [4]): -0.5096 | Screen (c-Src kinase domain; [2]): 0.1036

Sequence: LERFIYNPEEF [HLA-DPB1_Y59_R61P_YF]
Screen (c-Src kinase domain; [2]): 0.2405

Sequence: RRIHSYRCHLW [VHL_Y112_G114C]
Screen (variant relative to reference peptide, measured in the pTyr-Var library screen) (EPHB1 kinase domain): -1.413 | Screen (c-Src kinase domain; [5]): -2.304

Sequence: LCHELYNTIRD [PBRM1_Y54_V49L]
Screen (c-Src kinase domain; [5]): 1.3

Sequence: RRNEEYCLLAS [ITK_Y198_D202A]
Screen (EPHB1 kinase domain): -0.2034

Sequence: SILTVYSKDNF [PANK2_Y400_A398T_YF]
Screen (c-Src kinase domain; [5]): -1.709

Sequence: NFFDLYGGEKF [PTPN11_Y66_D61N_YF]
Screen (c-Src kinase domain; [5]): -0.03521

Sequence: HFVFFYSFLLK [PTEN_Y178_R173H_YF]
Screen (c-Src kinase domain; [5]): 0.679

Sequence: KFDLMYAKRAF [TUBA3E_Y399_W402R]
Screen (Fer kinase domain; [7]): -3.735 | Screen (c-Src kinase domain; [5]): -2.285

Sequence: SVTCTYSLALN [TP53_Y126_P128L]
Screen (c-Src kinase domain; [5]): 1.349

Sequence: HGQVNYEEFVQ [CALM2_Y139_D134H]
Screen (EPHB1 kinase domain): 1.863

Sequence: TSQSQYSSFRE [CCDC170_Y323_F324S]
Screen (c-Abl kinase domain; [3]): 2.786 | Screen (c-Src kinase domain; [2]): -1.483

Sequence: LKLKAYRFSIS [LCT_Y974_V971L]
Screen (c-Src kinase domain; [2]): 1.678

Sequence: NDENIYKGLPD [VAV3_Y141_D139N]
Screen (c-Src kinase domain; [5]): 1.088

Sequence: REVPVYTFSEP [FAM120B_Y368_D370Y_YF]
Screen (Fer kinase domain; [1]): 3.619 | Screen (EPHB1 kinase domain): 0.7576 | Screen (c-Src kinase domain; [2]): 3.398

Sequence: LMFPDYLPCSV [SAG_Y129_T125M]
Screen (c-Abl kinase domain; [6]): 0.9994

Sequence: FSALDYKIFFF [WDPCP_Y210_L205F_YF]
Screen (c-Abl kinase domain; [6]): -1.647

Sequence: KVALLYKPFFF [POLE_Y100_P99L_YF]
Screen (c-Src kinase domain; [5]): 1.635

Continued, values first:

Screen (c-Abl kinase domain; [3]): 0.6568
Sequence: DFTSRYLSASD [PKHD1_Y828_N830S]

Screen (c-Abl kinase domain; [3]): 0.6191
Sequence: LMQAEYWHDPI [PPT1_Y185_V181M]

Screen (c-Abl kinase domain; [3]): -0.08587
Sequence: AFQGKYTPSGQ [ALDOA_Y343_C339Y_YF]

Screen (EPHB2 kinase domain; [4]): 0.3975 | Screen (EPHB1 kinase domain): 0.4118
Sequence: RQNQEYEILMD [KRT39_Y379_L383M]

Screen (EPHB2 kinase domain; [4]): 2.197 | Screen (variant relative to reference peptide, measured in the pTyr-Var library screen) (EPHB1 kinase domain): 3.351
Sequence: SSPQLYLVPFL [TAF4_Y652_P651L]

Screen (EPHB1 kinase domain): 0.1225
Sequence: RHPEVYHHLGI [NVL_Y290_V295I]

Screen (c-Abl kinase domain; [6]): -0.2404
Sequence: TDTAAYEERLR [SPTB_Y474_V478L]

Screen (c-Abl kinase domain; [3]): -0.7157
Sequence: KNEVLYDEENH [ARFGEF1_Y314_G316E]

Screen (Fer kinase domain; [1]): -0.2857
Sequence: GHLFAYDWIRI [BEST1_Y227_S231R_YF]

Screen (EPHB2 kinase domain; [4]): 2.182 | Screen (EPHB1 kinase domain): 2.34
Sequence: VGTKWYMAPEV [ACVRL1_Y375_R374W]

Screen (EPHB2 kinase domain; effect of the variant relative to its reference peptide in the pTyr-Var library screen): 3.039 | Screen (variant relative to reference peptide, measured in the pTyr-Var library screen) (EPHB1 kinase domain): 3.912
Sequence: FSPCDYQPCLA [TNS1_Y798_Y796C_YF]

Screen (Fer kinase domain; [1]): -0.4962
Sequence: QRPFVYFFSFL [PTEN_Y176_R173P_YF]

Screen (c-Abl kinase domain; [3]): 1.358
Sequence: SARVRYLMAEK [LDHB_Y173_F171V]

Screen (c-Abl kinase domain; [3]): 0.6322
Sequence: QQLQGYVPSNF [FRK_Y99_I100V_YF]

Screen (c-Abl kinase domain; [3]): 1.149
Sequence: RLLRGYNQSAF [HLA-C_Y137_D138N_YF]

Screen (c-Abl kinase domain; [3]): 0.4221
Sequence: HHFAAYFQQGD [GPI_Y351_R347H]

Screen (EPHB1 kinase domain): -0.1972
Sequence: DGQVNYEGFVQ [CALM1_Y139_E141G]
